This passage reports IC50 results from patent EP0624159B1, “PYRIDYL SUBSTITUTED IMIDAZOLES” (SMITHKLINE BEECHAM CORPORATION, priority 1992, dated 1993).

A word on the pIC50: it is the negative decadic logarithm of the IC50, by convention in mol/L. A high value points to a small IC50.

pIC50: −log10 of the molar value. Bounds are passed on as bounds.

Assay [1] concerns TNF production by Human Monocytes. The experiment in a line: Inhibition of in vitro TNF production by LPS-stimulated human monocytes (radioimmunoassay / ELISA). The format is cell-based. The following applies: Monocyte; human peripheral blood monocytes, compound 45 minutes before LPS 100 ng/ml, 16-18 hours at 37°C. The procedure: The effects of compounds of Formula (I) on the in vitro production of TNF by human monocytes was examined using the following protocol.
Human peripheral blood monocytes were isolated and purified from either blood bank buffy coats or plateletpheresis residues, according to the procedure of Colotta, R. et al., J. Immunol., 132(2):936 (1984). The monocytes were plated at a density of 1 X 10^6 cells/ml medium/well in 24-well multi-dishes. […]
The assay buffer consisted of 0.01M NaPO4, 0.15M NaCl, 0.025M EDTA and 0.1% sodium azide at pH 7.4. […] Tubes were centrifuged for 30 minutes at 2000 rpm, supernatants were carefully aspirated, and radioactivity associated with the pellets measured in a Beckman Gamma 5500 counter. […] The concentrations of TNF in the samples was read of a standard curve of rhTNF that was linear in the 157 to 20,000 pg/ml range.
Iodination of rhTNF was performed using a modified chloramine-T method of Frolik et al., J. Biol. Chem., 259:10995-11000 (1984). […] The peak radioactivity containing fractions were pooled and stored at -20°C. […] Biological activity of iodinated TNF was measured by the L929 cytotoxicity assay of Neale, M.L. et al., Eur. J. Can. […]
(In general: ELISA stands for enzyme-linked immunosorbent assay.)

The subject of assay [2] is IL-1 production by human monocytes. The experiment in a line: Inhibition of in vitro IL-1 production by LPS-stimulated human monocytes (IL-1 bioassay via EL-4 IL-2 secretion). The assay is classed as cell-based. To be noted: Monocyte; human peripheral blood monocytes, compound 1 hr before LPS 50 ng/ml, 24 hours at 37°C. The procedure: The effects of compounds of Formula (I) on the in vitro production of IL-1 by human monocytes was examined using the following protocol.
Bacterial lipopolysaccharide (LPS) was used to induce IL-1 production by human peripheral blood monocytes. IL-1 activity was measured by its ability to stimulate a Interleukin 2 (IL-2) producing cell line (EL-4) to secrete IL-2, in concert with A23187 ionophore, according to the method of Simon et al., J. Immunol. Methods, 84, 85, (1985). Human peripheral blood monocytes were isolated and purified from either fresh blood preparations from volunteer donors, or from blood bank buffy coats, according to the procedure of Colotta et al., J. Immunol., 132, 936 (1984). 1 X 10^6 of such monocytes were plated in 24-well plates at a concentration of 1-2 million/ml per well. The cells were allowed to adhere for 2 hours, after which time non-adherent cells were removed by gentle washing. Test compounds were then added to the cells for 1 hour (hr) before the addition of lipopolysaccharide (50 ng/ml), and the cultures were incubated at 37°C for an additional 24 hours. At the end of the incubation period, culture supernatants were removed and clarified of cells and all debris. Culture supernatants were immediately assayed for IL-1 biological activity in the manner described above, as well as for prostaglandin and/or leukotriene concentrations by radioimmunoassay.

Regarding `Fc1ccc(-c2nc(-c3ccccc3)cn2-c2ccncc2)cc1` [Example 1, 1-(4-Pyridyl)-2-(4-fluorophenyl)-4-phenylimidazole], the negative logarithm of the IC50 (pIC50) in assay [1] was 5.46 to 6.30; in assay [2], 5.30 to 7.00.

Turning to `Oc1ccc(-c2cn(-c3ccncc3)c(-c3ccc(F)cc3)n2)cc1` [Example 2, 1-(4-Pyridyl)-2-(4-fluorophenyl)-4-(4-hydroxyphenyl)imidazole], the pIC50 was 5.46 to 6.30 in assay [1] and 5.30 to 7.00 in assay [2].

Consider `CSc1ccc(-c2cn(-c3ccncc3)c(-c3ccc(F)cc3)n2)cc1` [Example 3, 1-(4-Pyridyl)-2-(4-fluorophenyl)-4-(4-thiomethylphenyl) imidazole], for which the negative-log IC50 (pIC50) in assay [2] is < 5.30.

On to `C[S+]([O-])c1ccc(-c2cn(-c3ccncc3)c(-c3ccc(F)cc3)n2)cc1` (stereo not shown) [Example 4, 1-(4-Pyridyl)-2-(4-fluorophenyl)-4-(4-methylsulfinylphenyl)imidazole], for which the pIC50 in assay [2] was < 5.30.

`Cc1cn(-c2ccncc2)c(-c2ccc(F)cc2)n1` [Example 5, 1-(4-pyridyl)-2-(4-fluorophenyl)-4-methylimidazole] showed a pIC50 in assay [2] of 5.30 to 7.00.
